{"source": "patent US5789395A", "about": "“Method of using tetracycline compounds for inhibition of endogenous nitric oxide production” (The Research Foundation of State University of New York, priority 1996, dated 1998)", "key": {"renal mesangial cells": {"test_system": "renal mesangial cells", "experiment": "NO production by IFN-γ/LPS-stimulated renal mesangial cells (Greiss reaction)", "format": "cell-based, rat", "settings": "for inhibition of NO production, time course: 24-72 hr; for Emax at 5 µg/mL: Rattus norvegicus, Mesangial cell, 5 μg/mL, 48 hr, P<0.01, read-out: inhibition of NO production, maximal effect", "text": "The use of IFN-γ to induce renal injury is a model of glomerulonephritis known in the art. Glomerulonephritis is characterized by increased production of NO."}, "collagenase": {"test_system": "collagenase", "settings": "cited from earlier work"}, "iNOS [1]": {"test_system": "iNOS", "experiment": "iNOS activity (L-arginine-to-L-citrulline) in cell-free extracts of cells treated with modulator before LPS", "format": "cell-based, murine", "settings": "positive control", "procedure": "Murine macrophage cells (RAW 264.7) were incubated with 20-80 μg/mL doxycycline or minocycline, 10 μM hydrocortisone (Sigma Chemical Co., St. Louis, Mo.), or 75 μM L-NMMA for 1-2 h, followed by addition of LPS at 100 ng/mL and incubation for 16-18 h. Cell-free extracts were prepared at the end of each time period. Specific activity of iNOS was determined in the cell-free extracts by monitoring the conversion of L-[^3 H]-arginine to L-[^3 H]-citrulline as described by Amin et al. (1995b) and Vyas et al. (1996).\nCell-free extracts were prepared as follows: Following induction by incubation with LPS, the cells were pelleted at 4° C. and resuspended in Tris buffer (10 mM, pH 7.4) containing 10 μg/mL each chymostatin, antipain, leupeptin and pepstatin, 1 mM DTT and 1 mM PMSF. Cells were lysed in a Polytron PT 1200 homogenizer (Kinematica AG, Switzerland) after 3 cycles of rapid freeze-thawing. The lysate was centrifuged at 16,000 rpm for 60 min at 4° C., and the supernatants were used as cell-free extracts.\nThe protein in the extracts was measured by BCA assay reagent using BSA as standard (Smith et al. 1985). The reaction mixture for iNOS assay consists of Tris 50 mM (pH 7.8); BSA 1 mg/mL; DTT 1 mM; CaCl2, 2 mM; FAD 10 μM; BH4 10,μM; L-arginine 30 μM; NADPH 1 mM. The reaction mixture was spiked with 1μL (250 nM) of L-[^3 H]-arginine (Dupont NEN, Boston, Mass.) (1 mCi/mL=37.0 MBq/mL). After 20 min the assays were terminated by heating the reaction mixture at 90° C. for 5 min. Ten microiters (≈100,000 cpm) of the supernatant was spotted on activated AVICEL TLC plates (Analtech, Newark, Del.). The TLC plates were developed in a solvent system consisting of ethanol:water:ammonia (80:16:4). Quantitation of the spot for L-[^3 H]-citrulline was performed by a Bioscan System 200 Imaging Scanner."}, "NOS": {"test_system": "NOS", "settings": "competitive inhibitor; cited from earlier work"}, "iNOS [2]": {"test_system": "iNOS", "settings": "in vitro; Amin et al. 1995b; cited from earlier work"}, "[3]": {"test_system": "iNOS expression in mesangial cells", "settings": "Pfeilschifter et al. (1995); cited from earlier work"}, "iNOS mRNA [4]": {"test_system": "iNOS mRNA", "experiment": "iNOS mRNA expression in LPS-stimulated RAW 264.7 cells (RT-PCR)", "format": "cell-based, murine", "settings": "Mus musculus, RAW264.7, read-out: decrease of iNOS mRNA", "procedure": "Doxycycline and minocycline may suppress iNOS before the synthesis of the enzyme, leading to inhibition of iNOS protein expression, specific activity and accumulation of nitrite. […] Therefore, to determine the level at which tetracycline inhibited iNOS protein expression, RAW 264.7 cells treated with LPS in the presence or absence of doxycycline and minocycline were analyzed for iNOS mRNA by semi-quantitative RT-PCR.\nThe presence of iNOS and β-actin mRNA in cells was analyzed by reverse transcription (RT) of total RNA followed by PCR amplification of the cDNA. The sense and antisense oligonucleotides for iNOS were, respectively, 5'-ACGGAGAAGCTTAGATCTGGAGCAGAAGTG-3'(142 to 171) (SEQ ID NO:1) and 5'-CTGCAGGTTGGACCACTGGATCCTGCCGAT-3' (767 to 796) (SEQ ID NO:2). The sense and antisense primers for β-actin were 5'-TCCTTCGTTGCCGGTCCACA-3' (44 to 63) (SEQ ID NO:3) and 5'-CGTCTCCGGAGTCCATCACA-3' (534 to 552) (SEQ ID NO:4), respectively. The predicted PCR product of the iNOS cDNA was 654 bp; that of the β-actin cDNA was 508 bp. The polymerase chain reaction was carried out in an automated DNA thermal cycle (Perkin-Elmer Cetus, Norwalk, Conn.). The total RNA was extracted using TRI-Reagent (MRC Inc., Cincinnati, Ohio). The cDNA was prepared from equal amounts (1-5 μg) of total RNA using a SuperScript™ RNase H Reverse Transcriptase (Gibco BRL, Gaithersburg, Md.). An equal amount of the cDNA was used to amplify the mRNA by PCR. PCR amplification was performed in 50 μL solution containing 1.5 mM MgCl2, 500 ng iNOS primer, 100 ng β-actin primer, 0.2 mM of each dNTP, 2.5 units of Taq DNA polymerase (Gibco). The cycle conditions for amplification of cDNA were 1 min at 94° C., 1-2 min at 55° C. and 3 min at 72° C. for 30 cycles for both iNOS and β-actin. The PCR product was analyzed by electrophoresis on 1.0% agarose gels.\nRT-PCR analysis of iNOS and βactin mRNA expression in RAW 264.7 cells was carried out after stimulation with LPS±doxycycline or minocycline. […] Equal amounts of RNA were analyzed for iNOS and β-actin expression as described above."}, "iNOS mRNA [5]": {"test_system": "iNOS mRNA", "experiment": "iNOS mRNA expression in LPS-stimulated RAW cells (Northern blot)", "format": "cell-based, murine", "settings": "Mus musculus", "procedure": "Northern blot analysis of the iNOS MRNA expressed by the cells was then carried out to evaluate precisely the effect of iNOS expression in the presence of doxycycline and minocycline. The probes again were the iNOS and β-actin CDNA probes described above.\nIn this case, total RNA was isolated using TRI Reagent (MRC Inc., Cincinnati, Ohio). […] Briefly, 30 μg of RNA was subjected to electrophoresis in 1% agarose formaldehyde gel. The gel was then transferred via capillary action onto a nylon membrane (Zeta Probe, Bio-Rad Laboratories, Melville, N.Y.). The membrane was hybridized with [^32 P]-dCTP-labeled iNOS CDNA (4 kb SmaI fragment), a kind gift from Dr. James Cunningham (Harvard Medical School, Boston, Mass.). After hybridization, the blot was exposed to Kodak X-ray film (Kodak, Rochester, N.Y.) for 24-48 h with intensifying screens at -70° C. The β-actin probe was purchased from ClonTech (Palo Alto, Calif.) and probed as described above. Quantitation of the intensity of the iNOS/β-actin bands was performed using a phosphoimager (Molecular Dynamics, Sunnyvale, Calif.)."}, "133 kD iNOS": {"test_system": "133 kD iNOS", "experiment": "iNOS protein expression in LPS-activated RAW 264.7 cells (Western blot)", "format": "cell-based, murine", "settings": "10 μM, positive control", "procedure": "RAW 264.7 cells were activated with 100 ng/mL LPS for 16-18 h, with and without doxycycline or minocycline (20-80 μg/mL) or with hydrocortisone (10 μM). Cell-free extracts were prepared as described above. The extract s were analyzed for 133 kD iNOS by Western blotting, using specific anti-iNOS antibodies.\nEqual amounts of protein (25-50 μg) estimated by BCA reagent (Pierce, Rockford, Ill.) were loaded onto SDS-PAGE gels and stained to verify the concentrations of various protein fractions by examining the intensities of the protein bands on the gels. Western blot analysis was carried out from the same cell extracts. The Western-blotted membrane was probed with a specific anti-murine iNOS monoclonal antibody (Transduction Laboratories, Lexington, Ky.), as specified by the supplier. The same blot was also probed with an anti-actin antibody generously provided by Dr. James L. Lessard (Children's Hospital Medical Center, Cincinnati, Ohio). The blots were developed using the ECL Western blot system (Amersham, Arlington Heights, Ill.). Quantitation of the bands was performed using a densitometer from Molecular Dynamics (Sunnyvale, Calif.). FIG. 5 is representative."}, "[6]": {"test_system": "iNOS expression in macrophages", "settings": "Nathan et al. 1994, Vodovotz et al. 1993; cited from earlier work"}}, "data": [{"molecule": "CC1(O)c2cccc(O)c2C(=O)C2=C(O)C3(O)C(=O)C(C(N)=O)=C(O)CC3CC21", "note": "(centres unmarked) [CMT-1, 4-dedimethylaminotetracycline]", "values": [{"measurement": "NO production (% of control)", "setting": "renal mesangial cells; 10 μg/mL, after 48 hr", "result": "~ 60 % of control"}, {"measurement": "anti-collagenase activity", "setting": "collagenase", "result": "modest anti-collagenase activity"}]}, {"molecule": "NC(=O)C1=C(O)C2(O)C(=O)C3=C(O)c4c(O)cccc4CC3CC2CC1=O", "note": "(centres unmarked) [CMT-3, 6-demethyl-6-deoxy-4-dedimethylaminotetracycline]", "values": [{"measurement": "inhibition of NO production, time course", "setting": "renal mesangial cells", "result": "time-dependent inhibition of NO production"}, {"measurement": "Emax at 5 µg/mL", "setting": "renal mesangial cells", "result": "> 80", "unit": "%"}, {"measurement": "anti-collagenase activity", "setting": "collagenase", "result": "high level of anti-collagenase activity"}]}, {"molecule": "C[C@H]1c2cccc(O)c2C(O)=C2C(=O)[C@]3(O)C(O)=C(C(N)=O)C(=O)C[C@@H]3[C@@H](O)[C@@H]21", "note": "[CMT-8, 6-α-deoxy-5-hydroxy-4-dedimethylaminotetracycline]", "values": [{"measurement": "inhibition of NO production, time course", "setting": "renal mesangial cells", "result": "time-dependent inhibition of NO production"}, {"measurement": "Emax at 5 µg/mL", "setting": "renal mesangial cells", "result": "> 80", "unit": "%"}, {"measurement": "anti-collagenase activity", "setting": "collagenase", "result": "high level of anti-collagenase activity"}]}, {"molecule": "CN=C(N)NCCC[C@H](N)C(=O)O", "note": "[L-NMMA]", "values": [{"measurement": "inhibition of iNOS activity", "setting": "iNOS [1]; 75 μM", "result": 64, "unit": "%"}, {"measurement": "inhibition of NOS activity", "setting": "NOS", "result": "> 95", "unit": "%"}]}, {"molecule": "CC(=O)n1ccnc1", "note": "[N-acetyl imidazole, N-acetylimidazole]", "values": [{"measurement": "inhibition of iNOS catalytic activity", "setting": "iNOS [2]", "result": "inhibit iNOS catalytic activity in vitro"}]}, {"molecule": "CC(=O)Oc1ccccc1C(=O)O", "note": "[aspirin]", "values": [{"measurement": "inhibition of iNOS catalytic activity", "setting": "iNOS [2]", "result": "inhibit iNOS catalytic activity in vitro"}]}, {"molecule": "C[C@@H]1C[C@H]2[C@@H]3CCC4=CC(=O)C=C[C@]4(C)[C@@]3(F)[C@@H](O)C[C@]2(C)[C@@]1(O)C(=O)CO", "note": "[dexamethasone]", "values": [{"measurement": "suppression of IL-1β-induced iNOS expression", "setting": "[3]", "result": "acts at multiple levels (including transcription of iNOS) to suppress IL-1β-induced iNOS expression"}]}, {"molecule": "C[C@]12CCC(=O)C=C1CC[C@@H]1[C@@H]2[C@@H](O)C[C@@]2(C)[C@H]1CC[C@]2(O)C(=O)CO", "note": "[hydrocortisone]", "values": [{"measurement": "inhibition at 10 µM", "setting": "iNOS mRNA [4]", "result": "50 to 100", "unit": "%"}, {"measurement": "inhibition of iNOS activity", "setting": "iNOS [1]; 10 μM", "result": 60, "unit": "%"}, {"measurement": "inhibition at 10 µM", "setting": "iNOS mRNA [5]; read-out: inhibition of iNOS mRNA expression, 10 μM, doxycycline experiment (FIG. 6C)", "result": 73, "unit": "%"}, {"measurement": "inhibition at 10 µM", "setting": "iNOS mRNA [5]; read-out: inhibition of iNOS mRNA expression, 10 μM, minocycline experiment (FIG. 6D)", "result": 76, "unit": "%"}, {"measurement": "inhibition of iNOS protein expression", "setting": "133 kD iNOS", "result": 43, "unit": "%"}, {"measurement": "suppression of iNOS expression", "setting": "[6]", "result": "suppress iNOS expression by decreasing mRNA expression"}]}, {"molecule": "TGF-β1: suppresses iNOS expression in macrophages", "values": [{"measurement": "suppression of iNOS expression", "setting": "[6]", "result": "suppress iNOS expression by decreasing mRNA expression"}]}]}
